One assay has as its system DLD-1. The assay can be described thus: MTS assay, DLD-1. Type of assay: cell-based. Particulars: Homo sapiens, 72 hours, 1 Percent FBS. The procedure: (§1) Cells were maintained at 37° C., 5% CO2 in DMEM media supplemented with 1% fetal bovine serum, penicillin/streptomycin and fungizone (Invitrogen). Cells were seeded into 96-well tissue culture plates at 3000 per well and cultured at 37° C. for 18 hours. Test compounds were dissolved and diluted to 300× in DMSO then diluted 1:40 in DMEM. Cells were incubated with test compounds for 72 hours followed by incubation with tetrazolium compound (3-(4,5-dimethylthiazol-2-yl)-5-(3-carboxymethoxyphenyl)-2-(4-sulfophenyl)-2H-tetrazolium, inner salt; MTS) and the electron coupling reagent, phenazine methosulfate (PMS) for 4 hours. […] The ability of compounds to inhibit cell growth in this assay is correlated with the reduction of dehydrogenase enzyme activity found in metabolically active cells. The measurement of the absorbance of the formazan was assessed using a Victor (Perkin Elmer) microplate reader at 492 nm. The calculated IC50 value is the concentration of the test compound that causes a 50% decrease in the absorbance.
(In general: Tetrazolium assays rely on reduction of a dye to a coloured formazan, in cell work by metabolically active cells.)

For another assay, the system named is MDA-MB-231. The assay can be described thus: MTS assay, MDA-MB-231. The conditions noted are these: Homo sapiens, 72 hours, 1 Percent FBS. It is filed as cell-based. On the procedure: as §1

The term inhibition denotes the percentage by which the read-out fell short of the control. A high value points to a response far below the control. For the compound `CNc1nccc(-c2cc(NC3CCN(c4cc(Cl)ncn4)CC3)c3cc(OC)ccc3c2)n1` [Compound 159, 4-(4-{[1-(6-chloropyrimidin-4-yl)piperidin-4-yl]amino}-6-methoxy-2-naphthyl)-N-methylpyrimidin-2-amine], the inhibition at 10 µM with DLD-1 is 93%; in the assay on MDA-MB-231, 42%.

The compound `COc1cc(CCNc2nccc(-c3cc(N4CCOCC4)c4cc(OC)ccc4c3)n2)cc(OC)c1` [Compound 27, N-[2-(3,5-dimethoxyphenyl)ethyl]-4-(6-methoxy-4-morpholin-4-yl-2-naphthyl)pyrimidin-2-amine] showed an inhibition at 10 µM in the assay on DLD-1 of 87%.

In turn, `COc1ccc2cc(-c3ccnc(NCCc4cccc(OC)c4OC)n3)cc(N3CCOCC3)c2c1` [Compound 17, N-[2-(2,3-dimethoxyphenyl)ethyl]-4-(6-methoxy-4-morpholin-4-yl-2-naphthyl)pyrimidin-2-amine] displayed an inhibition at 10 µM with DLD-1 of 31%.

As to `CNc1nccc(-c2cc(NC(=O)CNCCOC)c3cc(OC)ccc3c2)n1` [Compound 85, N~2~-(2-methoxyethyl)-N-{7-methoxy-3-[2-(methylamino)pyrimidin-4-yl]-1-naphthyl}glycinamide], the values for the inhibition at 10 µM in the assay with DLD-1 and in the assay on MDA-MB-231 were 98% and 90%, respectively.

On to `CNc1nccc(-c2cc(NC(=O)CN3CCN(CCN(C)C)CC3)c3cc(OC)ccc3c2)n1` [Compound 67, 2-{4-[2-(dimethylamino)ethyl]piperazin-1-yl}-N-{7-methoxy-3-[2-(methylamino)pyrimidin-4-yl]-1-naphthyl}acetamide], for which the inhibition at 10 µM with DLD-1 turned out to be 31%; in the assay on MDA-MB-231, 53%.

As for `COc1ccc2cc(-c3ccnc(NCCc4cccnc4)n3)cc(N3CCNCC3)c2c1` [Compound 122, 4-(6-methoxy-4-piperazin-1-yl-2-naphthyl)-N-(2-pyridin-3-ylethyl)pyrimidin-2-amine], the inhibition at 10 µM with DLD-1 is 94%; in the assay on MDA-MB-231 it was 95%.

On to `COc1ccc2cc(-c3ccnc(NC4CCN(Cc5ccccc5)CC4)n3)cc(NC(=O)OC(C)(C)C)c2c1` [Compound 101, tert-butyl (3-{2-[(1-benzylpiperidin-4-yl)amino]pyrimidin-4-yl}-7-methoxy-1-naphthyl)carbamate], for which the inhibition at 10 µM came out at 96% with DLD-1 and 98% with MDA-MB-231.

With `CNc1nccc(-c2cc(NC(=O)CN3CCN(c4ccncc4)CC3)c3cc(OC)ccc3c2)n1` [Compound 70, N-{7-methoxy-3-[2-(methylamino)pyrimidin-4-yl]-1-naphthyl}-2-(4-pyridin-4-ylpiperazin-1-yl)acetamide], at 10 µM the inhibition with MDA-MB-231 was 37%.

With `COc1ccc(CCNc2nccc(-c3cc(NC(=O)OC(C)(C)C)c4cc(OC)ccc4c3)n2)cc1` [Compound 88, tert-butyl [7-methoxy-3-(2-{[2-(4-methoxyphenyl)ethyl]amino}pyrimidin-4-yl)-1-naphthyl]carbamate], the figures for the inhibition at 10 µM with DLD-1 and in the assay with MDA-MB-231 were 90% and 64%, respectively.

`COc1ccc2cc(-c3ccnc(NCCN4CCCC4)n3)cc(N3CCOCC3)c2c1` [Compound 29, 4-(6-methoxy-4-morpholin-4-yl-2-naphthyl)-N-(2-pyrrolidin-1-ylethyl)pyrimidin-2-amine]: the figures for the inhibition at 10 µM with DLD-1 and in the assay on MDA-MB-231 were 81% and 76%, respectively.

For `COc1ccc2cc(-c3ccnc(NC4CCN(Cc5ccccc5)CC4)n3)cc(N3CCOCC3)c2c1` [Compound 24, N-(1-benzylpiperidin-4-yl)-4-(6-methoxy-4-morpholin-4-yl-2-naphthyl)pyrimidin-2-amine], the figures for the inhibition at 10 µM in the assay on DLD-1 and in the assay with MDA-MB-231 were 97% and 95%, respectively.

On to `COc1ccc2cc(-c3ccnc(NC4CCN(C)CC4)n3)cc(N3CCNCC3)c2c1` [Compound 116, 4-(6-methoxy-4-piperazin-1-yl-2-naphthyl)-N-(1-methylpiperidin-4-yl)pyrimidin-2-amine], for which the inhibition at 10 µM in the assay on DLD-1 and in the assay on MDA-MB-231 was 97% throughout.

As for `COc1ccc2cc(-c3ccnc(NCCN(C)C)n3)cc(NC(=O)OC(C)(C)C)c2c1` [Compound 86, tert-butyl [3-(2-{[2-(dimethylamino)ethyl]amino}pyrimidin-4-yl)-7-methoxy-1-naphthyl]carbamate], the inhibition at 10 µM in the assay with DLD-1 came to 31%; in the assay with MDA-MB-231 it was 67%.

`COc1ccc2cc(-c3ccnc(NCc4ccccc4C)n3)cc(N3CCOCC3)c2c1` [Compound 20, 4-(6-methoxy-4-morpholin-4-yl-2-naphthyl)-N-(2-methylbenzyl)pyrimidin-2-amine] returned an inhibition at 10 µM with DLD-1 of 66%.

Take `COc1ccc2cc(-c3ccnc(NCc4ccccn4)n3)cc(NC(=O)OC(C)(C)C)c2c1` [Compound 102, tert-butyl (7-methoxy-3-{2-[(pyridin-2-ylmethyl)amino]pyrimidin-4-yl}-1-naphthyl)carbamate]: 10 µM produced 43% inhibition with DLD-1.

Take `COc1ccc2cc(-c3ccnc(NCc4cccc(C(F)(F)F)c4)n3)cc(NC(=O)OC(C)(C)C)c2c1` [Compound 90, tert-butyl [7-methoxy-3-(2-{[3-(trifluoromethyl)benzyl]amino}pyrimidin-4-yl)-1-naphthyl]carbamate]: at 10 µM the inhibition in the assay on MDA-MB-231 was 43%.

In the assay with MDA-MB-231, `COc1ccc2cc(-c3ccnc(NCCc4ccc(OC)c(OC)c4)n3)cc(NC(=O)OC(C)(C)C)c2c1` [Compound 95, tert-butyl [3-(2-{[2-(3,4-dimethoxyphenyl)ethyl]amino}pyrimidin-4-yl)-7-methoxy-1-naphthyl]carbamate] yielded an inhibition at 10 µM of 39%.

In the case of `COc1ccc2cc(-c3ccnc(NCc4cccc(C(F)(F)F)c4)n3)cc(N3CCOCC3)c2c1` [Compound 13, 4-(6-methoxy-4-morpholin-4-yl-2-naphthyl)-N-[3-(trifluoromethyl)benzyl]pyrimidin-2-amine], testing at 10 µM in the assay on DLD-1 gave an inhibition of 98%.

In the case of `COc1ccc2cc(-c3ccnc(NCc4ccc(OC)c(OC)c4)n3)cc(NC(=O)OC(C)(C)C)c2c1` [Compound 87, tert-butyl (3-{2-[(3,4-dimethoxybenzyl)amino]pyrimidin-4-yl}-7-methoxy-1-naphthyl)carbamate], at 10 µM the inhibition with DLD-1 was 45%.

In the assay with DLD-1, `CNc1nccc(-c2cc(NC(=O)CN3CCN(Cc4ccc(Cl)cc4)CC3)c3cc(OC)ccc3c2)n1` [Compound 66, 2-[4-(4-chlorobenzyl)piperazin-1-yl]-N-{7-methoxy-3-[2-(methylamino)pyrimidin-4-yl]-1-naphthyl}acetamide] yielded an inhibition at 10 µM of 69%.

With `CNc1nccc(-c2cc(NC3CCN(c4cc(N)ncn4)CC3)c3cc(OC)ccc3c2)n1` [Compound 156, 4-(4-{[1-(6-aminopyrimidin-4-yl)piperidin-4-yl]amino}-6-methoxy-2-naphthyl)-N-methylpyrimidin-2-amine], the inhibition at 10 µM in the assay on DLD-1 was 34%.

As for `CNc1nccc(-c2cc(NC(=O)CNc3ccncc3)c3cc(OC)ccc3c2)n1` [Compound 56, N-{7-methoxy-3-[2-(methylamino)pyrimidin-4-yl]-1-naphthyl}-N~2~-pyridin-4-ylglycinamide], the inhibition at 10 µM in the assay with MDA-MB-231 is 50%.

For `CNc1nccc(-c2cc(NC(=O)CN3CCN(c4ccc(C(F)(F)F)cn4)CC3)c3cc(OC)ccc3c2)n1` [Compound 55, N-{7-methoxy-3-[2-(methylamino)pyrimidin-4-yl]-1-naphthyl}-2-{4-[5-(trifluoromethyl)pyridin-2-yl]piperazin-1-yl}acetamide], testing at 10 µM with MDA-MB-231 gave an inhibition of 65%.

For `CNc1nccc(-c2cc(NC(=O)CNCCCN3CCN(C)CC3)c3cc(OC)ccc3c2)n1` [Compound 69, N-{7-methoxy-3-[2-(methylamino)pyrimidin-4-yl]-1-naphthyl}-N~2~-[3-(4-methylpiperazin-1-yl)propyl]glycinamide], the inhibition at 10 µM in the assay with MDA-MB-231 worked out at 40%.

Consider `COc1ccc2cc(-c3ccnc(NCCN(C)C)n3)cc(N3CCOCC3)c2c1` [Compound 8, N′-[4-(6-methoxy-4-morpholin-4-yl-2-naphthyl)pyrimidin-2-yl]-N,N-dimethylethane-1,2-diamine], for which, in the assay with MDA-MB-231, the inhibition at 10 µM amounted to 45%.

In the assay on MDA-MB-231, `CNc1nccc(-c2cc(NC(=O)CN3CCN(CCCN4CCOCC4)CC3)c3cc(OC)ccc3c2)n1` [Compound 77, N-{7-methoxy-3-[2-(methylamino)pyrimidin-4-yl]-1-naphthyl}-2-[4-(3-morpholin-4-ylpropyl)piperazin-1-yl]acetamide] displayed an inhibition at 10 µM of 41%.

For `CNc1nccc(-c2cc(NC3CCN(c4ncnc5scc(C)c45)CC3)c3cc(OC)ccc3c2)n1` [Compound 160, 4-(6-methoxy-4-{[1-(5-methylthieno[2,3-d]pyrimidin-4-yl)piperidin-4-yl]amino}-2-naphthyl)-N-methylpyrimidin-2-amine], in the assay with DLD-1, the inhibition at 10 µM was 50%.

In turn, `COc1ccc2cc(-c3ccnc(NCCc4ccccc4OC)n3)cc(N3CCOCC3)c2c1` [Compound 15, 4-(6-methoxy-4-morpholin-4-yl-2-naphthyl)-N-[2-(2-methoxyphenyl)ethyl]pyrimidin-2-amine] showed an inhibition at 10 µM with DLD-1 of 90%.

In the assay on DLD-1, `COc1ccc2cc(-c3ccnc(NCCc4ccccn4)n3)cc(N3CCOCC3)c2c1` [Compound 19, 4-(6-methoxy-4-morpholin-4-yl-2-naphthyl)-N-(2-pyridin-2-ylethyl)pyrimidin-2-amine] came in with an inhibition at 10 µM of 30%.

Take `CNc1nccc(-c2cc(NC3CCN(c4cc(Cl)nc(C)n4)CC3)c3cc(OC)ccc3c2)n1` [Compound 162, 4-(4-{[1-(6-chloro-2-methylpyrimidin-4-yl)piperidin-4-yl]amino}-6-methoxy-2-naphthyl)-N-methylpyrimidin-2-amine]: the inhibition at 10 µM with DLD-1 stood at 42%.

(Values after patent US8173808B2, “Substituted naphthalenyl-pyrimidine compounds” (ArQule, Inc., priority 2009, dated 2012).)
